Laboratory results from the NIST ThermoML archive (doi:10.1021/acs.jced.5b01039).
Values joined by “and” are separate entries in the source; they are usually repeats but may differ in a detail not shown here. Identical values can stand only once. ± gives the expanded uncertainty stated by the source.

Conditions: Liquid; for vapor or sublimation pressure: Closed cell (Static) method; for mass density: Pycnometric method

Row | SMILES | vapor or sublimation pressure (300 K) | mass density (300 K) | vapor or sublimation pressure (310 K) | mass density (310 K) [kg/m3] | vapor or sublimation pressure (320 K) | mass density (320 K) | vapor or sublimation pressure (330 K) | mass density (330 K) | vapor or sublimation pressure (340 K) | mass density (340 K) | vapor or sublimation pressure (350 K) | mass density (350 K) | vapor or sublimation pressure (360 K) | mass density (360 K) | vapor or sublimation pressure (370 K) | mass density (370 K) | vapor or sublimation pressure (380 K) | mass density (380 K) | further results
1 | F/C=C\C(F)(F)F [(Z)-1,3,3,3-tetrafluoro-1-propene] | 185.9 ± 0.8 kPa and 186.4 ± 0.8 kPa | 1218.6 ± 1 kg/m3 and 1219.2 ± 1 kg/m3 | 260.4 ± 0.9 kPa and 260.6 ± 0.9 kPa | 1191.2 ± 1 | 355.3 ± 1 kPa and 355.1 ± 1 kPa | 1162 ± 1 kg/m3 and 1163.5 ± 1 kg/m3 | 473.3 ± 1.2 kPa and 473.5 ± 1.2 kPa | 1132.5 ± 1 kg/m3 and 1131.5 ± 1 kg/m3 | 619 ± 1.4 kPa and 619.2 ± 1.4 kPa | 1100.2 ± 1 kg/m3 and 1101.7 ± 1 kg/m3 | 795.2 ± 1.7 kPa and 794.7 ± 1.7 kPa | 1066.1 ± 1 kg/m3 and 1067.3 ± 1 kg/m3 | 1007.3 ± 2 kPa | 1032.6 ± 1 kg/m3 and 1032.3 ± 1 kg/m3 | 1258.9 ± 2.5 kPa and 1258.7 ± 2.5 kPa | 993 ± 1 kg/m3 and 993.3 ± 1 kg/m3 | 1554.1 ± 3 kPa and 1556.9 ± 3 kPa | 951.5 ± 1 kg/m3 and 949.7 ± 1 kg/m3 | vapor or sublimation pressure (390 K): 1903.6 ± 3.6 kPa and 1903.7 ± 3.6 kPa; mass density (390 K): 900.5 ± 1.1 kg/m3 and 901.4 ± 1.1 kg/m3; vapor or sublimation pressure (400 K): 2308.3 ± 4.2 kPa and 2308.8 ± 4.2 kPa; mass density (400 K): 843.9 ± 1.1 kg/m3 and 843.6 ± 1.1 kg/m3
2 | F/C=C/C(F)(F)F [trans-1,3,3,3-tetrafluoropropene] | 526.8 ± 1.4 kPa and 526.6 ± 1.4 kPa | 1157.7 ± 1 kg/m3 and 1158 ± 1 kg/m3 | 703.2 ± 1.6 kPa and 702.4 ± 1.6 kPa | 1122.8 ± 1 | 919.6 ± 2 kPa and 919 ± 2 kPa | 1085.1 ± 1 kg/m3 | 1182.6 ± 2.5 kPa and 1182.3 ± 2.5 kPa | 1045.3 ± 1 kg/m3 and 1044.7 ± 1 kg/m3 | 1498.4 ± 3 kPa and 1498.6 ± 3 kPa | 1000.9 ± 1 kg/m3 and 1001.5 ± 1 kg/m3 | 1874 ± 3.7 kPa and 1874.1 ± 3.7 kPa | 950.3 ± 1.1 kg/m3 and 950.6 ± 1.1 kg/m3 | 2318 ± 4.5 kPa and 2319.2 ± 4.5 kPa | 889.8 ± 1.1 kg/m3 | 2841.4 ± 5.5 kPa and 2842.7 ± 5.5 kPa | 810.1 ± 1.3 kg/m3 | 3460 ± 6.4 kPa and 3461.5 ± 6.4 kPa | 668.8 ± 1.5 kg/m3 and 670.4 ± 1.5 kg/m3 | 
